The results in this text go back to ChEMBL document CHEMBL1201862, “PubChem BioAssay data set” (2004).

Some test systems named below: M19-MEL; HT-29; SNB-75; HOP-62; NCI-H460; SK-MEL-5; LOX IMVI; HCT-116; SN12C; NCI-H226; MOLT-4; COLO 205; SF-539; A498; SF-295; 786-0; Malme-3M.
Holding throughout (assay): growth of human tumour cells (NCI), 48 h

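Cultured in 96-well plates, cells were exposed to test compound for 48 hours across five concentrations. Here, GI50 denotes the concentration required for 50% inhibition of growth.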 Calls of active or inactive are those of the source. Rule as the data show it: active = GI50 up to about 1.1 µM and inactive = higher.

With `CSc1nc(CO)c(CO)n1C`, the GI50 in the test with M19-MEL, in the test on HT-29, in the test with SNB-75, in the test on HOP-62, in the test with NCI-H460 and in the test with SK-MEL-5 was > 100 µM (inactive) in each case. Besides, the GI50 in the test with LOX IMVI, in the test with HCT-116, with SN12C, in the test with NCI-H226, with MOLT-4 and with COLO 205 was > 100 µM (inactive) throughout. For the same compound, the GI50 in the test on SF-539, with A498 and in the test on SF-295 was > 100 µM (inactive) in each case.

As for `O=c1[c-](-c2ccccc2)[se]c(-c2ccccc2)[n+]1-c1ccccc1`, the GI50 was 7.59 µM (inactive) in the test on M19-MEL; 23 µM (inactive) in the test on HT-29; 8.15 µM (inactive) in the test on SNB-75; 15.9 µM (inactive) in the test on NCI-H460; 13 µM (inactive) with SK-MEL-5; 13.3 µM (inactive) in the test on LOX IMVI. The GI50 is 3.51 µM (inactive) with HCT-116; 5.05 µM (inactive) with SN12C; 3.13 µM (inactive) with NCI-H226; 18.8 µM (inactive) in the test on MOLT-4; 10.5 µM (inactive) in the test on 786-0; 15.5 µM (inactive) in the test with COLO 205. Besides, the GI50 was 15.5 µM (inactive) in the test with Malme-3M, 1.48 µM (inactive) in the test with SF-539, 10 µM (inactive) in the test on A498 and 3.61 µM (inactive) in the test on SF-295.

Turning to `COC(=O)Cc1cc(OC)c(OC)cc1Br`, the GI50 with M19-MEL was > 100 µM (inactive); in the test on HT-29, > 100 µM (inactive); in the test on SNB-75, 66.4 µM (inactive); in the test with HOP-62 it was > 100 µM (inactive); in the test with NCI-H460, > 100 µM (inactive); in the test on HCT-116, > 100 µM (inactive). Further, the GI50 in the test with SN12C, in the test on NCI-H226, in the test on MOLT-4, in the test with 786-0, in the test with COLO 205 and in the test on Malme-3M was > 100 µM (inactive) each time. The GI50 with A498 and with SF-295 was > 100 µM (inactive) in each case.

For `Cc1c(Cl)cccc1NC(=O)c1cccc([N+](=O)[O-])c1O`, the GI50 is 13.8 µM (inactive) in the test with M19-MEL; 12.9 µM (inactive) with HT-29; 17.5 µM (inactive) in the test with SNB-75; 9.29 µM (inactive) in the test on HOP-62; 8.81 µM (inactive) with NCI-H460; 3.26 µM (inactive) with SK-MEL-5. Also, the GI50 is 5.78 µM (inactive) in the test with LOX IMVI; 13.7 µM (inactive) in the test on HCT-116; 14 µM (inactive) in the test on SN12C; 15.5 µM (inactive) in the test on NCI-H226; 5.82 µM (inactive) in the test on MOLT-4; 20.5 µM (inactive) in the test on 786-0. The GI50 with COLO 205 was 14.1 µM (inactive); in the test on Malme-3M, 6.25 µM (inactive); in the test with SF-539, 15.7 µM (inactive); in the test on A498 it was 14.2 µM (inactive); in the test with SF-295, 16.4 µM (inactive).

As to `CSc1s[s+]c(SC)c1[O-]`, the GI50 in the test on M19-MEL is 15.5 µM (inactive); in the test with HT-29, 24.7 µM (inactive); in the test with SNB-75, 38.6 µM (inactive); with HOP-62, > 100 µM (inactive); in the test with NCI-H460 it was 29.3 µM (inactive); with SK-MEL-5 it was 90.6 µM (inactive). The GI50 is 17.1 µM (inactive) with HCT-116; 22.1 µM (inactive) in the test on SN12C; > 100 µM (inactive) in the test with NCI-H226; 13.3 µM (inactive) with MOLT-4; 16.5 µM (inactive) in the test on 786-0; 27.2 µM (inactive) in the test on COLO 205. The GI50 is 16.6 µM (inactive) with Malme-3M, 20.6 µM (inactive) with SF-539, > 100 µM (inactive) in the test on A498 and 47.9 µM (inactive) in the test with SF-295.

Consider `Cc1cc2c(cc1C)[n+]([O-])c(C(=O)C/C(=N/NC(=O)CC#N)C(=O)Nc1ccccc1C(F)(F)F)c(C)[n+]2[O-]`, for which the GI50 with M19-MEL was 43.2 µM (inactive); with HT-29, 49.3 µM (inactive); in the test on SNB-75, 36.6 µM (inactive); in the test with HOP-62, > 100 µM (inactive); in the test on NCI-H460 it was 34.4 µM (inactive); with LOX IMVI, 53.8 µM (inactive). For the same compound, the GI50 is 4.05 µM (inactive) in the test with HCT-116; 76 µM (inactive) with SN12C; 26.9 µM (inactive) in the test with NCI-H226; 52 µM (inactive) with MOLT-4; 52.8 µM (inactive) with 786-0; 46.1 µM (inactive) with COLO 205. Moreover, the GI50 was 3.56 µM (inactive) in the test on Malme-3M, 50.2 µM (inactive) with SF-539, 52 µM (inactive) with A498 and 95.7 µM (inactive) in the test with SF-295.

Consider `O=C(O)/C(=C/c1ccccc1[N+](=O)[O-])c1ccccc1`, for which the GI50 with M19-MEL, in the test on HT-29, in the test with SNB-75, with HOP-62, in the test with NCI-H460 and in the test on SK-MEL-5 was > 100 µM (inactive) throughout. Further, the GI50 in the test on LOX IMVI, in the test with HCT-116, in the test with SN12C, in the test on NCI-H226, with MOLT-4 and in the test on 786-0 was > 100 µM (inactive) throughout. For the same compound, the GI50 in the test with COLO 205, in the test on SF-539, with A498 and with SF-295 was > 100 µM (inactive) in each case.

On to `O=C1C=C(Nc2ccc(Br)cc2)c2ccccc2C1=O`, for which the GI50 in the test with M19-MEL was 1.73 µM (inactive); in the test on HT-29, 17.5 µM (inactive); in the test with SNB-75, 11 µM (inactive); with HOP-62 it was 16.9 µM (inactive); in the test on NCI-H460 it was 7.28 µM (inactive); with HCT-116 it was 13.6 µM (inactive). Moreover, the GI50 is 15.2 µM (inactive) with SN12C; 18.7 µM (inactive) in the test with NCI-H226; 10.9 µM (inactive) in the test on MOLT-4; 14.6 µM (inactive) in the test on 786-0; 17 µM (inactive) in the test on COLO 205; 15.1 µM (inactive) with Malme-3M. The results for the GI50 with SF-539, in the test with A498 and with SF-295 were 16 µM (inactive), 17.2 µM (inactive) and 15.8 µM (inactive), respectively.

As for `Cc1cccc2nc3cccc(C(=O)NCCN(C)C)c3nc12`, the GI50 in the test with M19-MEL was 0.675 µM (active); in the test on HT-29, 0.507 µM (active); in the test on SNB-75, 1.08 µM (active); with HOP-62, 0.247 µM (active); in the test with NCI-H460, 0.301 µM (active); with SK-MEL-5, 0.54 µM (active). The GI50 with LOX IMVI is 0.36 µM (active); in the test with HCT-116 it was 0.293 µM (active); in the test with SN12C it was 0.339 µM (active); in the test with NCI-H226 it was 1.04 µM (active); with MOLT-4, 0.26 µM (active); in the test with 786-0, 0.647 µM (active). For the same compound, the GI50 with COLO 205 was 0.443 µM (active); in the test with SF-539, 0.292 µM (active); in the test on A498, 0.266 µM (active); with SF-295, 0.643 µM (active).
